Data as given in the supplement of paper PMC10307832.

Key:
Assay in all cases: relative viability (nuclei count vs DMSO), 5 days (fraction); higher = more cells survive
[1] = compound: CC[C@H](Nc1ncnc2[nH]cnc12)c1nc2cccc(F)c2c(=O)n1-c1ccccc1 [Idelalisib] + CC(=O)Nc1cccc(-n2c(=O)n(C3CC3)c(=O)c3c(Nc4ccc(I)cc4F)n(C)c(=O)c(C)c32)c1 [Trametinib] (partner 0.02 µM)
Method in brief: (§1)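 Five library-drug doses in √10 steps were combined with a fixed anchor-drug dose, or a single drug was given alone, by pin tool to lung cancer cell lines in 1536-well plates the day after seeding. Nuclei were stained and counted after 5 days. Relative viability is the nuclei count in treated wells over that in vehicle wells, taken as the median of duplicate plates.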

[2] = compound: Nc1nc2[nH]cc(CCc3ccc(C(=O)N[C@@H](CCC(=O)O)C(=O)O)cc3)c2c(=O)[nH]1 [Pemetrexed] + CC(=O)c1c(C)c2cnc(Nc3ccc(N4CCNCC4)cn3)nc2n(C2CCCC2)c1=O [Palbociclib] (partner 0.5 µM)
Method in brief: as §1

[3] = compound: Nc1nc2[nH]cc(CCc3ccc(C(=O)N[C@@H](CCC(=O)O)C(=O)O)cc3)c2c(=O)[nH]1 [Pemetrexed] + COc1cccc2cc(-c3nc([C@H]4CC[C@H](C(=O)O)CC4)n4ncnc(N)c34)[nH]c12 [OSI-027] (partner 0.5 µM)
Method in brief: as §1

[4] = compound: CC[C@H](Nc1ncnc2[nH]cnc12)c1nc2cccc(F)c2c(=O)n1-c1ccccc1 [Idelalisib] + NC(=O)Nc1cc(-c2cccc(F)c2)sc1C(=O)N[C@H]1CCCNC1 [AZD7762] (partner 0.2 µM)
Method in brief: as §1

Cell Line | relative viability ([1]; first compound 0.04 µM) | relative viability ([1]; first compound 0.1265 µM) | relative viability ([1]; first compound 0.4 µM) | relative viability ([1]; first compound 1.265 µM) | relative viability ([1]; first compound 4 µM) | relative viability ([2]; first compound 0.002 µM) | relative viability ([2]; first compound 0.006325 µM) | relative viability ([2]; first compound 0.02 µM) | relative viability ([2]; first compound 0.06325 µM) | relative viability ([2]; first compound 0.2 µM) | relative viability ([3]; first compound 0.002 µM) | relative viability ([3]; first compound 0.006325 µM) | relative viability ([3]; first compound 0.02 µM) | relative viability ([3]; first compound 0.06325 µM) | relative viability ([3]; first compound 0.2 µM) | relative viability ([4]; first compound 0.04 µM) | relative viability ([4]; first compound 0.1265 µM) | relative viability ([4]; first compound 0.4 µM) | relative viability ([4]; first compound 1.265 µM) | relative viability ([4]; first compound 4 µM)
NCI-H1355 | 0.305 | 0.38 | 0.41 | 0.467 | 0.284 | 0.372 | 0.391 | 0.391 | 0.413 | 0.402 | 0.391 | 0.389 | 0.466 | 0.509 | 0.387 | 0.817 | 0.786 | 0.625 | 0.523 | 0.703
NCI-H727 | 0.423 | 0.457 | 0.34 | 0.394 | 0.387 | 0.721 | 0.692 | 0.638 | 0.633 | 0.613 | 0.568 | 0.668 | 0.587 | 0.692 | 0.752 | 0.625 | 0.574 | 0.578 | 0.379 | 0.704
NCI-H1975 | 0.328 | 0.382 | 0.37 | 0.375 | 0.288 | 0.306 | 0.562 | 0.606 | 0.375 | 0.237 | 0.528 | 0.681 | 0.873 | 0.557 | 0.394 | 0.75 | 0.724 | 0.661 | 0.743 | 0.646
NCI-H460 | 0.218 | 0.194 | 0.139 | 0.131 | 0.113 | – | 0.142 | 0.206 | 0.0722 | 0.0459 | 0.57 | 0.51 | 0.824 | 0.374 | 0.0473 | 0.639 | 0.611 | 0.615 | 0.2 | 0.682
EPLC-272H | 0.311 | 0.291 | 0.254 | 0.257 | 0.216 | 0.355 | 0.331 | 0.356 | 0.332 | 0.303 | 0.268 | 0.257 | 0.343 | 0.302 | 0.265 | 0.202 | 0.171 | 0.28 | 0.124 | 0.153
SW 900 | 0.854 | 0.861 | 0.856 | 0.667 | 0.734 | 0.549 | 0.564 | 0.604 | 0.516 | 0.521 | 0.633 | 0.608 | 0.689 | 0.591 | 0.464 | 0.569 | 0.609 | 0.416 | 0.3 | 0.463
NCI-H1648 | 0.418 | 0.482 | 0.423 | 0.433 | 0.397 | 0.255 | 0.24 | 0.24 | 0.282 | 0.302 | 0.253 | 0.268 | 0.22 | – | 0.26 | 0.652 | 0.638 | 0.866 | 0.6 | 0.504
NCI-H322M | 0.58 | 0.57 | 0.479 | 0.505 | 0.537 | 0.465 | 0.458 | 0.494 | 0.509 | 0.462 | 0.606 | 0.484 | 0.536 | 0.583 | 0.476 | 0.628 | 0.524 | 0.678 | 0.439 | 0.525
NCI-H2405 | 0.672 | 0.656 | 0.423 | 0.622 | 0.515 | 0.524 | 0.531 | 0.535 | 0.514 | 0.48 | 0.628 | 0.597 | 0.67 | 0.641 | 0.663 | 0.821 | 0.779 | 0.534 | 0.601 | 0.705
NCI-H1666 | 0.806 | 0.931 | 0.815 | 0.803 | 0.831 | 0.666 | 0.647 | 0.704 | 0.674 | 0.623 | 0.961 | 0.758 | 0.955 | 0.906 | 0.79 | 0.821 | 0.808 | 0.878 | 0.763 | 0.851
NCI-H358 | 0.191 | 0.146 | 0.149 | 0.129 | 0.148 | 0.149 | 0.111 | 0.14 | 0.134 | 0.137 | 0.729 | 0.751 | 0.638 | 0.191 | 0.106 | 0.571 | 0.462 | 0.377 | 0.295 | 0.409
H3255 | 0.602 | 0.57 | 0.471 | 0.577 | 0.527 | 0.351 | 0.319 | 0.312 | 0.31 | 0.328 | 0.542 | 0.55 | 0.598 | 0.659 | 0.585 | 0.956 | 0.859 | 0.911 | 0.909 | 0.802
LCLC-103H | 0.659 | 0.607 | 0.664 | 0.63 | 0.64 | 0.465 | 0.454 | 0.496 | 0.443 | 0.479 | 0.409 | 0.474 | 0.549 | 0.463 | 0.553 | 0.757 | 0.809 | 0.724 | 0.786 | 0.652
NCI-H2347 | 0.267 | 0.282 | 0.246 | 0.278 | 0.229 | 0.448 | 0.413 | 0.505 | 0.4 | 0.388 | 0.296 | 0.292 | 0.49 | 0.406 | 0.339 | 0.699 | 0.925 | 0.69 | 0.466 | 0.478
LK-2 | 0.87 | 0.651 | 0.503 | 0.588 | 0.704 | 0.751 | 0.758 | 0.721 | 0.464 | 0.366 | 0.233 | 0.205 | 0.228 | 0.153 | 0.2 | 0.637 | 0.395 | – | 0.27 | 0.371
NCI-H2342 | 0.804 | 0.851 | 0.779 | 0.753 | 0.658 | 0.494 | 0.505 | 0.57 | 0.514 | 0.521 | 0.537 | 0.618 | 0.593 | 0.633 | 0.698 | 0.626 | 0.498 | 0.49 | 0.484 | 0.46
